Converted amounts (≈) assume the structure as drawn.
Key:
Enterococcus = experiment: Antibacterial activity against vancomycin-resistant enterococcus assessed as inhibition of bacterial growth by CLSI protocol based broth liquid microdilution method; format: functional
Staphylococcus aureus [1] = experiment: Antibacterial activity against methicillin-resistant Staphylococcus aureus assessed as inhibition of bacterial growth by CLSI protocol based broth liquid microdilution method; format: functional
Staphylococcus aureus [2] = experiment: Antibacterial activity against Staphylococcus aureus ATCC 29213 assessed as inhibition of bacterial growth by CLSI protocol based broth liquid microdilution method; format: functional
Staphylococcus aureus [3] = experiment: Antibacterial activity against Staphylococcus aureus ATCC 29213 assessed as inhibition of bacterial growth incubated for 16 to 18 hrs by microbroth dilution method; format: functional; conditions: time 16-18 hrs, read-out: MIC100
Enterococcus faecalis = experiment: Antibacterial activity against Enterococcus faecalis ATCC 29212 assessed as inhibition of bacterial growth incubated for 16 to 18 hrs by microbroth dilution method; format: functional; conditions: time 16-18 hrs, read-out: MIC100
[4] = system: Stenotrophomonas maltophilia; experiment: Antibacterial activity against Stenotrophomonas maltophilia ATCC 17808 assessed as inhibition of bacterial growth incubated for 16 to 18 hrs by microbroth dilution method; format: functional; conditions: time 16-18 hrs, read-out: MIC100
Escherichia coli = experiment: Antibacterial activity against Escherichia coli ATCC 25922 assessed as inhibition of bacterial growth incubated for 16 to 18 hrs by microbroth dilution method; format: functional; conditions: time 16-18 hrs, read-out: MIC100
[5] = Hemolytic activity in sheep RBC assessed as hemolysis incubated for 1 hrs by microplate reader analysis; format: toxicity, cell-based, Ovis aries, Erythrocyte; conditions: sheep red blood cells

Row | SMILES | MIC (Enterococcus) | MIC (Staphylococcus aureus [1]) | MIC (Staphylococcus aureus [2]) | MIC (Staphylococcus aureus [3]) | MIC (Enterococcus faecalis) | MIC [4] | MIC (Escherichia coli) | HC50 at 1 h [5]
1 | CC(=O)NC[C@H]1CN(c2ccc(N3CCN(/N=C\c4ccc([N+](=O)[O-])o4)CC3)c(F)c2)C(=O)O1 | 1 µg/mL (≈ 2.11 µM) | 1 µg/mL (≈ 2.11 µM) | 0.25 µg/mL (≈ 0.527 µM) |  |  |  |  | 
2 | CC(=O)NC[C@H]1CN(c2ccc(N3CCN(C(=O)C[N+](C)(C)Cc4ccc(C(F)(F)F)cc4)CC3)c(F)c2)C(=O)O1.[Br-] |  |  |  | 128 µg/mL | 128 µg/mL | > 128 µg/mL | > 128 µg/mL | > 1280 µg/mL
3 | CC(=O)NC[C@H]1CN(c2ccc(N3CCN(C(=O)C[N+](C)(C)Cc4ccc(C#N)cc4)CC3)c(F)c2)C(=O)O1.[Br-] |  |  |  | > 128 µg/mL | 32 µg/mL | > 128 µg/mL | > 128 µg/mL | > 1280 µg/mL
4 | CCCCCC[N+](C)(C)CC(=O)N1CCN(c2ccc(N3C[C@H](CNC(C)=O)OC3=O)cc2F)CC1.[Br-] |  |  |  | 128 µg/mL | 8 µg/mL | > 128 µg/mL | > 128 µg/mL | > 1280 µg/mL
5 | CC(=O)NC[C@H]1CN(c2ccc(N3CCN(C(=O)CN(C)Cc4ccc(C)cc4)CC3)c(F)c2)C(=O)O1 |  |  |  | 16 µg/mL (≈ 31.3 µM) | 2 µg/mL (≈ 3.91 µM) | > 128 µg/mL | > 128 µg/mL | > 1280 µg/mL
6 | COc1ccc(CN(C)CC(=O)N2CCN(c3ccc(N4C[C@H](CNC(C)=O)OC4=O)cc3F)CC2)cc1 |  |  |  | 16 µg/mL (≈ 30.3 µM) | 2 µg/mL (≈ 3.79 µM) | > 128 µg/mL | > 128 µg/mL | > 1280 µg/mL

— ChEMBL document CHEMBL6109105, “Design, synthesis and antibacterial evaluation of oxazolidinone derivatives containing N-methylglycyl or quaternary ammonium salts” (Bioorg Med Chem, 2025)
